Results from patent publication US20240196932A1, “NOVEL USE” (DSM IP Assets B.V., priority 2021, published 2024).

System: rumen liquor
Experiment: In vitro test for methane production (modified Hohenheim Forage value Test, HFT)
Format: cell-based
Conditions: for Total methane change [% vs. control]: TMR feed, 8 hours at 39° C, average of four to eight experiments
Procedure: In vitro test for methane production: A modified version of the “Hohenheim Forage value Test (HFT)” was used for testing the effect of specific compounds on the rumen functions mimicked by this in-vitro system.
Principle: Feed is gadded into a syringe with a composition of rumen liquor and an appropriate mixture of buffers. The solution is incubated at 39° C. After 8 hours the quantity (and composition) of gas phase produced is measured and put into a formula for conversion.
Sample weighing: The feed stuff (i.e. TMR (44% concentrate, 6% hay, 37% maize silage and 13% grass silage) is sieved to 1 mm and weighed exactly into 64 syringes. 4 of these syringes are the substrate controls, which display the gas production without the effect of the tested compounds. The remaining syringes contain the test substances, by groups of 4 syringes.
The components are mixed in a Woulff bottle in following order: • 711 ml water • 0.18 ml trace element solution • 355.5 ml buffer solution • 355.5 ml mass element solution • The completed solution is warmed up to 39° C.followed by the addition of 1.83 ml sodium salt solution and the addition of reduction solution at 36° C. The rumen liquor is added, when the indicator turns colourless.
Extraction of the rumen liquor: 750 ml of rumen liquor are added to approximately 1,400 ml of medium solution under continued agitation and CO2-gassing.
Filling the syringes, incubation and determining gas volumes and VFA values: The diluted rumen fluid (24 ml) is added to the glass syringe. The syringes are then incubated for 8 hours at 39° C.under gentle agitation. After 8 hours, the volume of gas produced is measured, and the percentage of methane in the gas phase is determined by gas chromatography.
The food fermented was artificial TMR (44% concentrate, 6% hay, 37% maize silage and 13% grass silage). Gossypol was obtained from Sigma-Aldrich (G8761), and used at a concentration as outlined in table 1. 3-Nitrooxy-propanol (3-NOP) was used at the concentration as outlined in table 1.

Cc1cc2c(C(C)C)c(O)c(O)c(C=O)c2c(O)c1-c1c(C)cc2c(C(C)C)c(O)c(O)c(C=O)c2c1O (racemic) [gossypol, Gossypol]
Total methane change [% vs. control] (gossypol 5 μM, listed as prints 2 g/animal/day): −1 % vs. control | Total methane change [% vs. control] (gossypol 10 μM, listed as prints 4.3 g/animal/day): −11 % vs. control | Total methane change [% vs. control] (gossypol 20 μM, listed as prints 8.6 g/animal/day): −15 % vs. control | Total methane change [% vs. control] (gossypol 100 μM, listed as prints 17.3 g/animal/day): −69 % vs. control | methane reduction (gossypol concentrations of at least 7.5 g gossypol/animal/day): Clear effects
